Literature values, collected in patent publication US20110029296A1, “Metabolic analysis apparatus and metabolic analysis method” (FUJITSU LIMITED, priority 2009, published 2011).

Biological target: CYP2E1 (Homo sapiens, UniProt P05181)
Sequence (P05181 whole entry, species assumed): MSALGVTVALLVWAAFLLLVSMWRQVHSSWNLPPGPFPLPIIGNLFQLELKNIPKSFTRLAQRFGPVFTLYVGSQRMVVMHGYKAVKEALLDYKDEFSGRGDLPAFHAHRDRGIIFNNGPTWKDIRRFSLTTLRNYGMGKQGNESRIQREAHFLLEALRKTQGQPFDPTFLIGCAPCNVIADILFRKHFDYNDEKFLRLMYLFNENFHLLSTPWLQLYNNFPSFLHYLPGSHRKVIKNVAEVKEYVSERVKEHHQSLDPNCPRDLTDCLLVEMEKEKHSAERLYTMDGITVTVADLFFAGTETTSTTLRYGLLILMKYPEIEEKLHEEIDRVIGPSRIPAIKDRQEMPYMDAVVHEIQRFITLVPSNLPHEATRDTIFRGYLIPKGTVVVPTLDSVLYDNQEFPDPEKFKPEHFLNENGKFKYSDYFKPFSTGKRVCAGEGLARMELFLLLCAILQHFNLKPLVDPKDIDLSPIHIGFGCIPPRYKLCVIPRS

Question: Which “metabolism by CYP2E1” value (forms a complex with CYP2E1) does the source give for Nc1cc2c3ccccc3ccc2c2ccccc12 [6-aminochrysene] here?
Answer: not metabolized by CYP2E1

Question: And the “effect on the metabolic reaction of CYP2E1” value (inhibition by the amino group)?
Answer: inhibitor which inhibits the metabolic reaction of CYP2E1
